In publication PMC3804772, “Rational Design, Synthesis, and Biological Evaluation of Third Generation α-Noscapine Analogues as Potent Tubulin Binding Anti-Cancer Agents” (PLoS ONE, 2013):
Read-outs that look alike come from different tables or passages of the source.

Experiments:
[1] = tested on: tubulin; assay: Tubulin binding of noscapine and previously reported noscapinoids (literature values); conditions: Table 1; calculated from KD, ΔGbind = RT ln KD, T = 298 K
Procedure: Here ⟨ ⟩ represent the ensemble average, b represents the bound form of the ligand, f represents the free form of the ligand, and α, β, and γ are the coefficients. U vdw, U elec, and U cav are the van der Waals, electrostatic, and cavity energy terms in the SGB continuum solvent model. The cavity energy term, U cav, is proportional to the exposed surface area of the ligand. Various energy parameters included in equation 1 were calculated from the docked complex corresponding to each analogue using Liaison package as described previously. The average LIE energy terms were used for building the binding affinity model and estimation of binding free energies of noscapine derivatives. The α, β, and γ LIE fitting parameters were determined using Minitab statistical package (version 16.0, Minitab Inc.) by fitting the experimental binding affinities of training set molecules. A dataset consisting of 7 noscapine derivatives (compounds: 1, 2a-f; Figure 2) with known experimental binding affinities was used as a training set.

[2] = target: tubulin; conditions: cited from earlier work
[3] = target: T1, tubulin (Bos taurus, UniProt P81947+Q6B856); assay: Tubulin binding assay (quenching of intrinsic tryptophan fluorescence); parameters: species or system bovine; conditions: for Kd: 2 µM tubulin, PEM buffer pH 6.8, 37 °C, 45 min, mean ± S.D.; for Experimental ΔGbind: calculated from KD, ΔGbind = RT ln KD, T = 298 K
T1 construct: Tubulin devoid of microtubule-associated proteins (MAPs) was purified from bovine brain; from tissue; host or cells: bovine brain
T1 sequence (Q6B856 whole entry): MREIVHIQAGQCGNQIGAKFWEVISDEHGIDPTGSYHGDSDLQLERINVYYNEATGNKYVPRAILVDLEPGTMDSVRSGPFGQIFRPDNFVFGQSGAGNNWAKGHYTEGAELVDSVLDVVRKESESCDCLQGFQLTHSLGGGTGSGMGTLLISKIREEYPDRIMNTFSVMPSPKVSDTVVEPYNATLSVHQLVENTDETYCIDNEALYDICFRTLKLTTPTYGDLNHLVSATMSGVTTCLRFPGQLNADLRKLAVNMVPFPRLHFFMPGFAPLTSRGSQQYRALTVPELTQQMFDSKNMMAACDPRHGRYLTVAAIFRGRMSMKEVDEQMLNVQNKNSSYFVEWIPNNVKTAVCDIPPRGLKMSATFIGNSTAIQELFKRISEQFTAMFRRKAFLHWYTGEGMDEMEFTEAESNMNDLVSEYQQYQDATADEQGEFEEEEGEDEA
T1 sequence (P81947 whole entry): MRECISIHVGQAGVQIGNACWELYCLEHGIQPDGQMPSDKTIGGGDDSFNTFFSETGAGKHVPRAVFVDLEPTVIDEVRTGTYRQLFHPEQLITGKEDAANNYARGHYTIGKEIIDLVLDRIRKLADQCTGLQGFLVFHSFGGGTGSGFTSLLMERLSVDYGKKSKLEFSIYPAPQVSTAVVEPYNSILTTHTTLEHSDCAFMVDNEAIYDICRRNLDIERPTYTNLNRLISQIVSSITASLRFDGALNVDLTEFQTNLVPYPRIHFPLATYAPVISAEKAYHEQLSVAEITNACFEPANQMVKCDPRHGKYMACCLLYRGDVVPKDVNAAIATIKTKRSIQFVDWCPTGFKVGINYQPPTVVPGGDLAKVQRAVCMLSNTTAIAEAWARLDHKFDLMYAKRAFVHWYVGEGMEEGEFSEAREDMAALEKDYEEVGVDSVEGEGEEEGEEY
Procedure: Tubulin devoid of microtubule-associated proteins (MAPs) was purified from bovine brain by cycles of temperature-dependent polymerization and depolymerization as described previously followed by phosphocellulose chromatography. The concentration of the tubulin was determined by the method of Bradford using BSA as the standard. Purified tubulin was quickly frozen as drops in liquid nitrogen and stored at - 80 °C until used.
Noscapinoids quench the […] intrinsic tryptophan fluorescence of tubulin in a concentration-dependent fashion as described previously. This has allowed an easy method for measuring the tubulin-noscapinoids interactions. Briefly, the compounds 5a, 6a-j (0-200 µM) were incubated with 2 µM tubulin in PEM buffer (100 mM PIPES, pH 6.8, 3 mM MgSO4, and 1 mM EGTA) at 37 °C for 45 min. After incubation, the samples were excited at 295 nm. The relative intrinsic fluorescence intensity of the tubulin was then monitored in the absence and presence of the compound 5a, 6a-j using a Varian Cary Eclipse Fluorescence Spectrophotometer (Agilent Technologies, CA, USA). The emission readings were recorded at 335 nm. We used a 0.3 cm path-length cuvette to minimize the inner filter effects caused by the absorbance of the noscapinoids. In addition, the inner filter effects were corrected using a formula F corrected = F observed·antilog [(A ex + A em)/2], where A ex is the absorbance at the excitation wavelength and A em is the absorbance at the emission wavelength. The equilibrium dissociation constant (KD) was determined by the formula: 1/a = KD/[free ligand] + 1, where a is the fractional occupancy and [free ligand] is the concentration of free ligand. The fractional occupancy (a) was determined by the formula a = ΔF/ΔF max, where ΔF is the change in fluorescence intensity when tubulin and its ligand are in equilibrium and ΔF max is the value of maximum fluorescence change when tubulin is completely bound with its ligand. ΔF max was calculated by plotting 1/ΔF versus 1/ligand, using total ligand concentration as the first estimate of free ligand concentration. Three independent experiments were performed for each noscapinoid.

[4] = tested on: human lymphoblast cell line (CEM); assay: In vitro cell proliferation assay (SRB), CEM; assay type: cell-based; conditions: 72 h, mean ± S.D.
Procedure: (§1) The cell proliferation assay was performed in 96-well plates as described previously. A panel of four cancer cell lines of different tissues of origins, namely: human lung adenocarcinoma epithelial cell line (A549), human lymphoblast cell line (CEM), human cervix cell line (HeLa) and human breast epithelial cell line (MCF-7) were studied. These cell lines were obtained from the National Repository of Animal Cell Culture, National Centre for Cell Sciences, Pune (NCCS), India. Briefly, 2 x10^3 cells were seeded in each well and were incubated with gradient concentrations of 5a, 6a-j compounds for 72 h. The cells were then fixed with 50% trichloroacetic acid and stained with 0.4% sulforhodamine B (SRB) dissolved in 1% acetic acid. Cells were then washed with1% acetic acid to remove excess (unbound) SRB. The protein-bound SRB was dissolved with 10 mM Tris base and the absorbance at 564 nm was determined using a SPECTRAmax PLUS 384 microplate spectrophotometer.

[5] = tested on: human cervix cell line (HeLa); assay: In vitro cell proliferation assay (SRB), HeLa; assay type: cell-based; conditions: 72 h, mean ± S.D.
Procedure: as §1

[6] = tested on: human lung adenocarcinoma epithelial cell line (A549); assay: In vitro cell proliferation assay (SRB), A549; assay type: cell-based; conditions: 72 h, mean ± S.D.
Procedure: as §1

[7] = tested on: human breast epithelial cell line (MCF-7); assay: In vitro cell proliferation assay (SRB), MCF-7; assay type: cell-based; conditions: MCF7, 72 h, mean ± S.D.
Procedure: as §1

[8] = tested on: cancer cells of different tissues of origin (CEM, HeLa, A549, MCF-7); assay: In vitro cell proliferation assay (SRB), panel of four cancer cell lines; assay type: cell-based; conditions: Homo sapiens; range over cancer cells of different tissues of origin
Procedure: as §1

[9] = tested on: MCF-7 cells; assay: Cell cycle analysis by flow cytometry (propidium iodide); assay type: cell-based, human; conditions: MCF-7, 25 µM
Procedure: The flow cytometric evaluation of the cell cycle status was performed as described previously. Briefly, cells (2 x 10^6) treated with the noscapinoids up to 72 h were centrifuged, washed twice with cold PBS, and fixed in 70% ethanol. Tubes containing the cell pellets were stored at 4 °C for minimum of 24 h. Cells were then centrifuged at 1000 x g for 10 min and the supernatant was discarded. The pellets were washed twice with 5 ml of PBS and then stained with 0.5 ml of propidium iodide (0.1% of Pl + 0.6% Triton-X in PBS) and 0.5 ml of RNase A (2 mg/ml) for 45 minutes in dark. Samples were then analyzed on a FACS Calibur flow cytometer ([…]).

[10] = Table 1, training set with known experimental binding affinities, mean ± S.D., read-out: KD value

Experimental ΔGbind [1] [kcal/mol]	Kd [3] [µM]	Experimental ΔGbind [3] [kcal/mol]	IC50 [5] [µM]	IC50 [6] [µM]	IC50 [7] [µM]	melting point [°C]	SMILES	Kd [2, 10] [µM]	IC50 [4] [µM]	Cell cycle parameters % G0/G1, 24 hours [9] [%]	Cell cycle parameters % G2/M, 24 hours [9] [%]	Cell cycle parameters % S, 24 hours [9] [%]	Cell cycle parameters % Sub-G1, 24 hours [9] [%]	Cell cycle parameters % G0/G1, 72 hours [9] [%]	Cell cycle parameters % G2/M, 72 hours [9] [%]	Cell cycle parameters % S, 72 hours [9] [%]	Cell cycle parameters % Sub-G1, 72 hours [9] [%]	other results
-6.006							COc1ccc2c(c1OC)C(=O)O[C@@H]2[C@H]1c2c(c(Cl)c3c(c2OC)OCO3)CCN1C [Compound 2b]	40 ± 8										
-6.628							COc1ccc2c(c1OC)C(=O)O[C@@H]2[C@H]1c2c(c(N=[N+]=[N-])c3c(c2OC)OCO3)CCN1C [Compound 2f]	14 ± 1										
	38 ± 4	-6.036	15.3 ± 0.5	26.9 ± 1.4	24.5 ± 0.8	65	COc1ccc2c(c1OC)C(=O)O[C@@H]2[C@H]1c2c(cc3c(c2OC)OCO3)CCN1Cc1cccc(Br)c1 [Compound 6f, (S)-3-((R)-6-(3-bromobenzyl)-4-methoxy-5,6,7,8-tetrahydro-[1,3]dioxolo[4,5-g]isoquinolin-5-yl)-6,7-dimethoxyisobenzofuran-1(3H)-one]		6.7 ± 0.3	11.82	67.48	6.29	9.47	6.38	37.29	4.72	50.44	Tubulin binding affinity relative to the parent compound noscapine ([3]; ratio of KD values): ~ 4.0 times; IC50 [8]: 6.7 to 26.9 µM
-5.246			24 ± 2.9	72.9 ± 4.6	42.3 ± 2.7		COc1ccc2c(c1OC)C(=O)O[C@@H]2[C@H]1c2c(cc3c(c2OC)OCO3)CCN1C [Compound 1, noscapine]		14.5 ± 2.5	19.48	62.38	4.19	7.24	19.05	37.36	8.53	30.62	Binding stoichiometry, noscapine molecule per tubulin dimer [2]: 0.95 ± 0.02; Kd ([2]; values quoted in the text for comparison, read-out: Equilibrium dissociation constant (KD)): 144 ± 1 µM
-5.587							COc1ccc2c(c1OC)C(=O)O[C@@H]2[C@H]1c2c(c(F)c3c(c2OC)OCO3)CCN1C [Compound 2a]	81 ± 8										
-5.827							COc1ccc2c(c1OC)C(=O)O[C@@H]2[C@H]1c2c(c(Br)c3c(c2OC)OCO3)CCN1C [Compound 2c, 9-bromonoscapine]	54 ± 9.1										
-6.360							COc1ccc2c(c1OC)C(=O)O[C@@H]2[C@H]1c2c(c(I)c3c(c2OC)OCO3)CCN1C [Compound 2d]	22 ± 4										
-5.551							COc1ccc2c(c1OC)C(=O)O[C@@H]2[C@H]1c2c(c([N+](=O)[O-])c3c(c2OC)OCO3)CCN1C [Compound 2e]	86 ± 6										
	91 ± 8	-5.518	23.7 ± 1.5	49 ± 2.5	38.2 ± 2.5	154	COc1ccc2c(c1OC)C(=O)O[C@@H]2[C@H]1c2c(cc3c(c2OC)OCO3)CCN1Cc1ccc([N+](=O)[O-])cc1 [Compound 6c, (S)-6,7-dimethoxy-3-((R)-4-methoxy-6-(4-nitrobenzyl)-5,6,7,8-tetrahydro-[1,3]dioxolo[4,5-g]isoquinolin-5-yl)isobenzofuran-1(3H)-one]		10 ± 0.8	20.72	63.49	4.85	8.08	15.38	38.41	8.27	36.73	
	228 ± 10	-4.973	32.4 ± 2.4	72.3 ± 3.5	52.6 ± 3.8	92	CCOC(=O)CN1CCc2cc3c(c(OC)c2[C@@H]1[C@H]1OC(=O)c2c1ccc(OC)c2OC)OCO3 [Compound 6j, Ethyl 2-((R)-5-((S)-4,5-dimethoxy-3-oxo-1,3-dihydroisobenzofuran-1-yl)-4-methoxy-7,8-dihydro-[1,3]dioxolo[4,5-g]isoquinolin-6(5H)-yl)acetate]		13.6 ± 1.3	25.71	66.17	3.09	8.29	22.16	39.48	8.63	27.24	
